Experimental data taken from PMC9067983, “Identification of highly selective type II kinase inhibitors with chiral peptidomimetic tails” (Journal of Enzyme Inhibition and Medicinal Chemistry, 2022).
Where a SMILES comes first, the peptide text is derived from it. [ ]: non-standard residue; d: D form. The star is where a group is joined. X1 = Cc1ccc(Nc2ncc3c(n2)N(C)C(=O)N(c2cc(C(=O)*)ccc2C)C3)cn1; Aib = CC(C)(N)C(=O)O

Columns and labels:
Test in all cases: kinase selectivity profiling
Format in all cases: biochemical
Settings in all cases: 10µM ATP, read-out: % inhibition (relative to DMSO)
ALK = target: T1, ALK (Homo sapiens, UniProt Q9UM73)
T1 construct: purchased Reaction Biology Corp
Procedure: (§1) Full panel kinase profiling and kinase IC50 measurement were performed by using Reaction Biology Corp. (San Diego, USA).

CAMK4 = target: T2, CAMK4 (Homo sapiens, UniProt Q16566)
T2 construct: purchased Reaction Biology Corp
Procedure: as §1

CDC7/DBF4 = target: T3, CDC7/DBF4 (Homo sapiens, UniProt O00311)
T3 construct: purchased Reaction Biology Corp
Procedure: as §1

CDK14/cyclin Y (PFTK1) = target: T4, CDK14/cyclin Y (PFTK1) (Homo sapiens, UniProt O94921)
T4 construct: purchased Reaction Biology Corp
Procedure: as §1

DYRK4 = target: T5, DYRK4 (Homo sapiens, UniProt Q9NR20)
T5 construct: purchased Reaction Biology Corp
Procedure: as §1

Fgr = target: T6, Fgr (Homo sapiens, UniProt P09769)
T6 construct: purchased Reaction Biology Corp
Procedure: as §1

GSK3b = target: T7, GSK3b (Homo sapiens, UniProt P49841)
T7 construct: purchased Reaction Biology Corp
Procedure: as §1

HIPK2 = target: T8, HIPK2 (Homo sapiens, UniProt Q9H2X6)
T8 construct: purchased Reaction Biology Corp
Procedure: as §1

HPK1/MAP4K1 = target: T9, HPK1/MAP4K1 (Homo sapiens, UniProt Q92918)
T9 construct: purchased Reaction Biology Corp
Procedure: as §1

JNK2 = target: T10, JNK2 (Homo sapiens, UniProt P45984)
T10 construct: purchased Reaction Biology Corp
Procedure: as §1

LATS2 = target: T11, LATS2 (Homo sapiens, UniProt Q9NRM7)
T11 construct: purchased Reaction Biology Corp
Procedure: as §1

LCK2/ICK = target: T12, LCK2/ICK (Homo sapiens, UniProt Q9UPZ9)
T12 construct: purchased Reaction Biology Corp
Procedure: as §1

MEK2 = target: T13, MEK2 (Homo sapiens, UniProt P36507)
T13 construct: purchased Reaction Biology Corp
Procedure: as §1

MKK4 = target: T14, MKK4 (Homo sapiens, UniProt P45985)
T14 construct: purchased Reaction Biology Corp
Procedure: as §1

PIM3 = target: T15, PIM3 (Homo sapiens, UniProt Q86V86)
T15 construct: purchased Reaction Biology Corp
Procedure: as §1

PKCG = target: T16, PKCG (Homo sapiens, UniProt P05129)
T16 construct: purchased Reaction Biology Corp
Procedure: as §1

PKCmu/PRKD1 = target: T17, PKCmu/PRKD1 (Homo sapiens, UniProt Q15139)
T17 construct: purchased Reaction Biology Corp
Procedure: as §1

PKG2/PRKG2 = target: T18, PKG2/PRKG2 (Homo sapiens, UniProt Q13237)
T18 construct: purchased Reaction Biology Corp
Procedure: as §1

PRKX = target: T19, PRKX (Homo sapiens, UniProt P51817)
T19 construct: purchased Reaction Biology Corp
Procedure: as §1

STK33 = target: T20, STK33 (Homo sapiens, UniProt Q9BYT3)
T20 construct: purchased Reaction Biology Corp
Procedure: as §1

TGFBR2 = target: T21, TGFBR2 (Homo sapiens, UniProt P37173)
T21 construct: purchased Reaction Biology Corp
Procedure: as §1

T10 sequence (P45984 whole entry): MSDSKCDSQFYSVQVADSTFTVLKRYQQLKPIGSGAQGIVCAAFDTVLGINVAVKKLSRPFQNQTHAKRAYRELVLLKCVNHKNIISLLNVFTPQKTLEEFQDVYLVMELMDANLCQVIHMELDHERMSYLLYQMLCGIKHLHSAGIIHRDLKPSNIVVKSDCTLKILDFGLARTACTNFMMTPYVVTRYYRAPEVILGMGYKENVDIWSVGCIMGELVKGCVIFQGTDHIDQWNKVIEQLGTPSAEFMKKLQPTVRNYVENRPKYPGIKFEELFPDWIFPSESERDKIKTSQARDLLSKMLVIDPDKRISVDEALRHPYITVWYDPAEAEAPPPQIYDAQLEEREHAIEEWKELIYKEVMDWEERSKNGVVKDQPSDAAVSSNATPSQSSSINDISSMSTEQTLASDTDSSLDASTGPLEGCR
T13 sequence (P36507 whole entry): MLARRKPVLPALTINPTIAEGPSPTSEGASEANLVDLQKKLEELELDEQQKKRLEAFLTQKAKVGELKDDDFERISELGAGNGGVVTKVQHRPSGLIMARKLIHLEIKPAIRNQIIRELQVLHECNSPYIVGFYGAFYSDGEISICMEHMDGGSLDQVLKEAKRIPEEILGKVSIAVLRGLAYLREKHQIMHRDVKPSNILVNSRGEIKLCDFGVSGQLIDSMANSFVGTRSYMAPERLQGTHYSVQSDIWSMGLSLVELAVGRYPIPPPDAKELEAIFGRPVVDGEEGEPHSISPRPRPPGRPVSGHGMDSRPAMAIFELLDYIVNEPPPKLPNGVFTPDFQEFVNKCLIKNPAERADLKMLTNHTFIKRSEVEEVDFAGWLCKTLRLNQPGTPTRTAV
T20 sequence (Q9BYT3 whole entry): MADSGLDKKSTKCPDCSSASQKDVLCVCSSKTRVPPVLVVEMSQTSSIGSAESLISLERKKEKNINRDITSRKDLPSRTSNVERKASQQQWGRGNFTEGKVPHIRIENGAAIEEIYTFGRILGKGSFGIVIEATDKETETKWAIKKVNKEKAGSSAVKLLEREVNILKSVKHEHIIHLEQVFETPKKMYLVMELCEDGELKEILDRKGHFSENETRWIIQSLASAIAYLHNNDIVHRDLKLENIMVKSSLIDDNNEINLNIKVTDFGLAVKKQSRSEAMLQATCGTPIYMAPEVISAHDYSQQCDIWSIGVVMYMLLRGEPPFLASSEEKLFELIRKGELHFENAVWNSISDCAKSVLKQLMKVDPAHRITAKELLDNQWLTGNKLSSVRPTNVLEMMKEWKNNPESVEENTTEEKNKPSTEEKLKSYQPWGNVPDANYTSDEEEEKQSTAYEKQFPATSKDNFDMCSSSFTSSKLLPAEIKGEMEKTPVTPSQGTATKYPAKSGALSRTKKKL
T21 sequence (P37173 23-567): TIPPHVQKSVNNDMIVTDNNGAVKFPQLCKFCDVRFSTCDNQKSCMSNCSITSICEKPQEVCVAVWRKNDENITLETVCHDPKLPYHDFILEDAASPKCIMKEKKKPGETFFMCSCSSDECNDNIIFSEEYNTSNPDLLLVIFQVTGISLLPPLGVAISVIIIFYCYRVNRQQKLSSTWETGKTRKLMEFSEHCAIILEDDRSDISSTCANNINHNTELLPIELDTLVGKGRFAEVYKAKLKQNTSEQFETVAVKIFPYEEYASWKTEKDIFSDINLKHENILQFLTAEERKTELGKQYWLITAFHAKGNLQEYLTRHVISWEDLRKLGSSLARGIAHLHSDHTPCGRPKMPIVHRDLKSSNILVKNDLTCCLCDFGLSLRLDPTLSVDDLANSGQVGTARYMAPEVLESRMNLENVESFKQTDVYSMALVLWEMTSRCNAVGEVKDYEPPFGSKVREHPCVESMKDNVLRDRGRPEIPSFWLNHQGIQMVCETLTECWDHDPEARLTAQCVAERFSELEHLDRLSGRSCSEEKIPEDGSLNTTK
T18 sequence (Q13237 whole entry): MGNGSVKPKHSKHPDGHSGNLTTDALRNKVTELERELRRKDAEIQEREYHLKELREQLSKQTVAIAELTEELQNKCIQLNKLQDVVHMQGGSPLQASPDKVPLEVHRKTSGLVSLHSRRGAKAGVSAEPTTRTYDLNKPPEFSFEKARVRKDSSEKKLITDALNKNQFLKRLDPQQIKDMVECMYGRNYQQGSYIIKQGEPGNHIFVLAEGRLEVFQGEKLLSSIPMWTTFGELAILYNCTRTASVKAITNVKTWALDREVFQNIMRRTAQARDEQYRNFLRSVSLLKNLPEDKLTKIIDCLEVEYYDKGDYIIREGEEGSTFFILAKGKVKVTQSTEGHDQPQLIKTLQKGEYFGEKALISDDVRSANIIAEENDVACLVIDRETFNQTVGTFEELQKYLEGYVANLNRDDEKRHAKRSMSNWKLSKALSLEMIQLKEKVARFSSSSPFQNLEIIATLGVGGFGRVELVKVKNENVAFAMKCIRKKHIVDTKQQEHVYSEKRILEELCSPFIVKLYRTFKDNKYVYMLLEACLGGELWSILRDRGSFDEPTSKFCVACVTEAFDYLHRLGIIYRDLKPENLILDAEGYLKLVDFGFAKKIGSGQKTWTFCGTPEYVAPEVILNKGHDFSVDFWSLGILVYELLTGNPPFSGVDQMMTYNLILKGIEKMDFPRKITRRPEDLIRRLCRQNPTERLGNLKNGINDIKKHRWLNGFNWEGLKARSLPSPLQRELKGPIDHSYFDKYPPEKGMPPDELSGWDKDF
T4 sequence (O94921 whole entry): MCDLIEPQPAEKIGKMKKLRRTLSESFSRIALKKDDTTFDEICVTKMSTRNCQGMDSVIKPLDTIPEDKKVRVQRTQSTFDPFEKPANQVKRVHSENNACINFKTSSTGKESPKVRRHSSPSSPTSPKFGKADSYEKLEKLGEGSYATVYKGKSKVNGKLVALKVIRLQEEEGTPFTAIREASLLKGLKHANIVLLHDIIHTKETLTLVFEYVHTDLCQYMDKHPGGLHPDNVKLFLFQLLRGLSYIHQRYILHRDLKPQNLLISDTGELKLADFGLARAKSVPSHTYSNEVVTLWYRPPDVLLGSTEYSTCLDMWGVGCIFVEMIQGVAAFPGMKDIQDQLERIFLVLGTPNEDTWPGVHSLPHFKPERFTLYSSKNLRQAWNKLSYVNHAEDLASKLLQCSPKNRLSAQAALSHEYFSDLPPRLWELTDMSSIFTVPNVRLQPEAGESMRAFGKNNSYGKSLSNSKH
T4 sequence (Q8ND76 whole entry partner): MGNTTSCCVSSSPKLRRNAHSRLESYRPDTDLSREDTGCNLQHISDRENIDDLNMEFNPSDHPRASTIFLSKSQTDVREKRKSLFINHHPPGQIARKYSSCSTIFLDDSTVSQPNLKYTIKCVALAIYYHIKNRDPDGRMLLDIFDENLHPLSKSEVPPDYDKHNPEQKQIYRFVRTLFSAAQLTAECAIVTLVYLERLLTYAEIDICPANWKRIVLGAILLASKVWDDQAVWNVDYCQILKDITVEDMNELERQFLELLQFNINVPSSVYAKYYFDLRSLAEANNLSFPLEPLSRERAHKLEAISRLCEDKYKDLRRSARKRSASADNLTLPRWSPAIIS
T2 sequence (Q16566 whole entry): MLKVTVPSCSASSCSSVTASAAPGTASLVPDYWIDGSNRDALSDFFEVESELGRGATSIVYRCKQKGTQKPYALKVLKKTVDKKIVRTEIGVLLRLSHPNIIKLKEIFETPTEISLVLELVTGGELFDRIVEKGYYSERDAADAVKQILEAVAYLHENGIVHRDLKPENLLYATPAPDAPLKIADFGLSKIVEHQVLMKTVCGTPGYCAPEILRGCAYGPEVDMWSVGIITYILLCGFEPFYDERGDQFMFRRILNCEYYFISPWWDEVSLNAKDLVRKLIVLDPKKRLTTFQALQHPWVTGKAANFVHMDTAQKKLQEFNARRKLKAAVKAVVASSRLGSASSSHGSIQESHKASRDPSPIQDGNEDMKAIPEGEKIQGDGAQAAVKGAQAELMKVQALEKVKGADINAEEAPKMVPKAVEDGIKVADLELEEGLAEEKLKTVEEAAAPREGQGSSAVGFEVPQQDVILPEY
T19 sequence (P51817 whole entry): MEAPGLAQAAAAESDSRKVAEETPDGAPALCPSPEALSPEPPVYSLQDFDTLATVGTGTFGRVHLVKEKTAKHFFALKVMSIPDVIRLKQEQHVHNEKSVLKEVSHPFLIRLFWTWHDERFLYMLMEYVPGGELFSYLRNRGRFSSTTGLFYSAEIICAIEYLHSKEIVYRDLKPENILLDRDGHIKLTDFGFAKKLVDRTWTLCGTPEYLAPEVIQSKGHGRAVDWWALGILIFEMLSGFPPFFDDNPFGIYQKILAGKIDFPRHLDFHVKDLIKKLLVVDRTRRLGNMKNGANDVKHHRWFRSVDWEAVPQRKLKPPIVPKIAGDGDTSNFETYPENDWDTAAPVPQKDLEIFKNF
T6 sequence (P09769 whole entry): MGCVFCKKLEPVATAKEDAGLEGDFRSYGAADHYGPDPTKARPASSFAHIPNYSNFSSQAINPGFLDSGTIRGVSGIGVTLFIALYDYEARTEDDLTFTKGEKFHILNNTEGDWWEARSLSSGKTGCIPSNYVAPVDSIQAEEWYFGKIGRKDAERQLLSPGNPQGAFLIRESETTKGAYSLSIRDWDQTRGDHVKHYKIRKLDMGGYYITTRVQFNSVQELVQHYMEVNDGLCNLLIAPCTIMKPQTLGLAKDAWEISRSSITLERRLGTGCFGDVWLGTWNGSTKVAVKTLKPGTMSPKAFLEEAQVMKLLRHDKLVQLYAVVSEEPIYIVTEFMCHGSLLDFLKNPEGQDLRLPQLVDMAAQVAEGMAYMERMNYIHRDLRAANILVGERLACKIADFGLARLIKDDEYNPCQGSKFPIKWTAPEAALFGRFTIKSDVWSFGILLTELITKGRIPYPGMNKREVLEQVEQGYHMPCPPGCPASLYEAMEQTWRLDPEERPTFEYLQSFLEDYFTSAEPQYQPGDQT

**Q.** For `Cc1ccc(Nc2ncc3c(n2)N(C)C(=O)N(c2cc(C(=O)N[C@H](C(=O)N4CCC[C@H]4C(=O)NC(C)(C)C(=O)N[C@@H](CC(C)C)C(=O)N(C)C)C(C)C)ccc2C)C3)cn1` [7a, (S)-N-(1-(((S)-1-(dimethylamino)-4-methyl-1-oxopentan-2-yl)amino)-2-methyl-1-oxopropan-2-yl)-1-((4-methyl-3-(1-methyl-7-((6-methylpyridin-3-yl)amino)-2-oxo-1,4-dihydropyrimido[4,5-d]pyrimidin-3(2H)-yl)benzoyl)-L-valyl)pyrrolidine-2-carboxamide] (X1-VP[Aib]L-NMe2), which inhibition at 1 µM (ALK) is on record?
**A.** 0%

**Q.** And the inhibition at 1 µM (CAMK4)?
**A.** 0%

**Q.** What about the inhibition at 1 µM (CDC7/DBF4) of the same compound?
**A.** 0%

**Q.** And the inhibition at 1 µM (CDK14/cyclin Y (PFTK1))?
**A.** 6%

**Q.** What about the inhibition at 1 µM (DYRK4) of the same compound?
**A.** 3%

**Q.** And the inhibition at 1 µM (Fgr)?
**A.** 80%

**Q.** What about the inhibition at 1 µM (GSK3b) of the same compound?
**A.** 0%

**Q.** What about the inhibition at 1 µM (HIPK2) of the same compound?
**A.** 0%

**Q.** What about the inhibition at 1 µM (HPK1/MAP4K1) of the same compound?
**A.** 0%

**Q.** And the inhibition at 1 µM (JNK2)?
**A.** 2%

**Q.** And the inhibition at 1 µM (LATS2)?
**A.** 1%

**Q.** And the inhibition at 1 µM (LCK2/ICK)?
**A.** 0%

**Q.** What about the inhibition at 1 µM (MEK2) of the same compound?
**A.** 11%

**Q.** And the inhibition at 1 µM (MKK4)?
**A.** 2%

**Q.** And the inhibition at 1 µM (PIM3)?
**A.** 0%

**Q.** And the inhibition at 1 µM (PKCG)?
**A.** 9%

**Q.** What about the inhibition at 1 µM (PKCmu/PRKD1) of the same compound?
**A.** 0%

**Q.** And the inhibition at 1 µM (PKG2/PRKG2)?
**A.** 11%

**Q.** What about the inhibition at 1 µM (PRKX) of the same compound?
**A.** 0%

**Q.** What about the inhibition at 1 µM (STK33) of the same compound?
**A.** 0%

**Q.** And the inhibition at 1 µM (TGFBR2)?
**A.** 0%
